Laboratory results published in US20110009379A1, “INDOLINONE COMPOUND” (ASTELLAS PHARMA INC., priority 2008, published 2011).

Key:
human TRPA1 = target: T1, human TRPA1 (Homo sapiens, UniProt O75762, K186N/R3C/R58T); assay: Measurement of TRPA1 activation activity (intracellular calcium, FLIPR, HEK293 cells stably expressing human TRPA1); type: cell-based; conditions: change of intracellular calcium concentration
T1 construct: expressed in transfected cells; pcDNA3.1(+) vector)
Method: 10 ng of Human brain mRNA (Clontech Co.) was treated with DNase, and then was reverse transcribed using kit for reverse transcription-polymerase chain reaction (RT-PCR) (SUPERSCRIPT First-Strand Synthesis System for RT-PCR; Invitrogen Co.) to synthesize the first strand cDNA. PCR using a hot start method was performed using the first strand cDNA as a template and Taq DNA polymerase (LA Taq DNA polymerase; TAKARA SHUZO). The PCR was performed using oligonucleotides consisting of the nucleotide sequences, represented by sequence number 2 as a sense primer and sequence number 3 as an antisense primer, in which firstly, heat denaturation was performed at 98° C. (1 minute), and then a cycle of 98° C. (15 seconds)/56° C. (30 seconds)/72° C. (5 minutes) was repeated 35 times. As a result, a DNA fragment of about 3.3 kbp was amplified.
The DNA fragment was cloned to pCR-TOPO vector using a cloning kit (TOPO XL PCR Cloning Kit; Invitrogen). The obtained plasmid DNA was digested with restriction enzymes KpnI and HindIII, and then was cloned using plasmid pcDNA 3.1(+)(Invitrogen). In this connection, the plasmid pcDNA 3.1(+) has a promoter sequence derived from cytemegalovirus, and can be used in order to express a protein in animal cells.
The nucleotide sequences of the obtained clones were analyzed using DNA sequencer (ABI3700 DNA Sequencer; Applied Biosystems) by dideoxyterminator method, and the nucleotide sequence represented by sequence number 1 was obtained. Furthermore, when these sequences were translated to amino acid sequences, the amino acid sequence represented by sequence number 1 was obtained.
After constructing the expression vector of the human TRPA1 gene, selection by G418 was performed from the HEK293 cells which temporarily expressed TRPA1 by transfection operation to obtain cells stably expressing TRPA1. The above operation was performed according to known methods (experimental medicine supplementary volume, “Cultivation Cell Experimental Methods for Molecular Biology Study” published by Toshio Kuroki, Namho Hue and Kazuhiro Chida, 1995, Yodosha).
In order to measure the change of the intracellular calcium concentration in the cells stably expressing the human TRPA1, the change of the intracellular calcium concentration when a compound to be tested was added was measured using FLIPR (Molecular Device).
In order to measure the change of the intracellular calcium concentration with FLIPR, the following pretreatment was performed. First of all, assay buffer was prepared which was for adding fluorescent pigment Fluo4-AM (DOJIN) to the cells or washing the cells just before performing FLIPR assay. To a solution (hereinafter, HBSS/HEPES solution) where 20 mL of 1M HEPES (pH 7.4; Invitrogen) was added to 1000 mL of a physiological saline buffer (Hank's Balanced Salt Solution; HBSS) (Invitrogen), was added 10 mL of a solution where 710 mg of probenecid (Sigma) was dissolved into 5 mL of 1M aqueous NaOH solution and 5 mL of HBSS/HEPES solution was further added and mixed, and the assay buffer was thus prepared. Then, 50 μg of Fluo4-AM was dissolved into 22 μL of DMSO (DOJIN), the same amount of 20% pluronic acid (Molecular Probes) was added thereto and mixed, and the mixture was added to the 10.6 mL of the assay buffer where 105 μL of fetal bovine serum was added, to prepare a fluorescent pigment solution. The medium of the cells stably expressing TRPA1 was removed, 100 μL per well of the fluorescent pigment solution was dispensed immediately, followed by cultivation in a CO2 cultivator for 1 hour, and the fluorescent pigment was soaked in the cells. The cells after cultivation were washed using the assay buffer, followed by being set in FLIPR. Furthermore, a test sample, which was added to the cells stably expressing TRPA1, was prepared by using the assay buffer, and at the same time, was set in FLIPR. […]

gastric emptying of rats = assay: Activity to gastric emptying of TRPA1 agonist (phenol red, rats); type: in vivo; conditions: Rattus norvegicus; male wistar rats, oral administration, versus control animals; read-out: ED50 (amount which suppresses 50% of gastric emptying)
Excerpt: When EC cell is stimulated by content of a gastrointestinal tract, 5-HT is secreted. The secreted 5-HT promotes the secretion or motility through a 5-HT receptor present in intestinal nerve plexus or gastrointestinal smooth muscle. The secreted 5-HT is instantly taken into a cell by its specific transporter, and is metabolized by […]. Thus, while it is considerably difficult to directly measure the secreted 5-HT concentration, it has been known that gastric emptying is delayed as a physiological activity through 5-HT in rodents. In order to verify in vivo activity through 5-HT of the compound to be tested, activity to gastric emptying of rats by various TRPA1 agonists was studied.
In the experiment, male wistar rats (body weight 290 to 360 g) were used. The animals were purchased from Japan SLC (Shizuoka). The animals were allowed to drink water freely under a constitutive environment.
5 minutes after the medicine was orally administered, 0.05% phenol red solution (1.5 mL) was orally administered. After 15 minutes, rats were put painlessly to death by cervical vertebral dislocation, their stomachs were exenterated, and phenol red was eluted with 0.1M aqueous NaOH solution (5 mL) from the exenterated stomachs. 20% aqueous trichloroacetic acid solution (0.1 mL) was added to the NaOH solution (0.5 mL), followed by stirring and centrifugation at 15,000 rpm, at 4° C., for 10 minutes. 0.5M aqueous NaOH solution (0.2 mL) was added to the supernatant (0.05 mL), followed by stirring, and absorbance at 560 nm was measured using an absorption spectrometer (spectrometer spectramax M2; Molecular Devices, CA, USA).
A gastric emptying was calculated by the following calculating formula.
Gastric emptying (%)=100−(A/B)×100
A: amount of phenol red remaining in stomach
B: amount of phenol red remaining in stomach just after administering phenol red
ED50 values (amount of the compound to be tested which suppresses 50% of gastric emptying, with respect to the control animals without administering the compound to be tested) of some of the compounds of the formula (I) are shown in Table 2. In this connection, comparative compound 1 and comparative compound 2 are (3E)-1-methyl-3-(2-oxopropyridene)-1,3-dihydro-2H-indol-2-one, and (3E)-3-(2-oxopropyridene)-1-prop-2-in-1-yl-1,3-dihydro-2H-indol-2-one described in Non Patent Document 4 above, and has the following chemical structures, respectively.

Cytochrome P450(2D6) = Cytochrome P450(2D6) (Homo sapiens, UniProt P10635); assay: Cytochrome P450(2D6) enzyme inhibition test; type: in vitro ADME; conditions: CYP2D6, fluorescent substrate 1.5 μmol/L, 37° C., 20 minutes
Chain of Cytochrome P450(2D6) (P10635 whole entry): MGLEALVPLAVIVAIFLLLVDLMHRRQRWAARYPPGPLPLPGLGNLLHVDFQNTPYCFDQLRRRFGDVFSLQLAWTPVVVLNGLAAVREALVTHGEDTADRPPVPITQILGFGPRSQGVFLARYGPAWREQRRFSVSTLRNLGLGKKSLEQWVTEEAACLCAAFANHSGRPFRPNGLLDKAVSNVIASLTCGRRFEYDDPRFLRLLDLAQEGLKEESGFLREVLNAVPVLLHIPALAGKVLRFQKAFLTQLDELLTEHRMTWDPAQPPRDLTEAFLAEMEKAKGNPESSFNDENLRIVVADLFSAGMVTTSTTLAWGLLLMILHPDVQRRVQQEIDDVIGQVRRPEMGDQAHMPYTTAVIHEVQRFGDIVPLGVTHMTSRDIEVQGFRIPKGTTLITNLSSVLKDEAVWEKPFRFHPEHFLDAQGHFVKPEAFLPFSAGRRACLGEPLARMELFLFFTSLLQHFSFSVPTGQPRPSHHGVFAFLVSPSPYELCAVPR
Method: The experiment was performed in accordance with the method of Crespi et al. (Analytical Biochemistry, 248, 188-190, 1997).
As a substrate, 3-[2-(N,N-diethyl-N-methylamino)ethyl]-7-methoxy-4-methyl coumarine (1.5 μmol/L) a compound to be tested (3.1×10^−7 to 2×10^−5 M) and an enzyme (2.5×10^−8 M) were incubated at 37° C. for 20 minutes in total of […] of 100 mM phosphorous buffer (pH=7.4) including 8.2 mM NADP+, 0.41 mM glucose-6-phosphate, 0.41 mM MgCl2 and 0.4 Units/mL glucose-6-phosphate dehydrogenase, using 96 well plates. Then, 0.5 M aqueous 2-amino-2-hydroxymethyl-1,3-propandiol solution containing 80% acetonitrile was added to stop the reaction, fluorescence intensity (excitation wavelength; 390 nm, fluorescent wavelength; 460 nm) was measured with a fluorescent plate reader. An inhibition ratio was calculated with the following formula, and the test compound concentration when the inhibition ratio is 50% (IC50) was obtained.
C1: fluorescence intensity in the presence of the test compound and enzyme at know concentrations, and the substrate
C0: fluorescence intensity in the presence of the enzyme and substrate, without the test compound
B1: fluorescence intensity of blank well

T1 sequence (O75762 whole entry R3C/R58T/K186N): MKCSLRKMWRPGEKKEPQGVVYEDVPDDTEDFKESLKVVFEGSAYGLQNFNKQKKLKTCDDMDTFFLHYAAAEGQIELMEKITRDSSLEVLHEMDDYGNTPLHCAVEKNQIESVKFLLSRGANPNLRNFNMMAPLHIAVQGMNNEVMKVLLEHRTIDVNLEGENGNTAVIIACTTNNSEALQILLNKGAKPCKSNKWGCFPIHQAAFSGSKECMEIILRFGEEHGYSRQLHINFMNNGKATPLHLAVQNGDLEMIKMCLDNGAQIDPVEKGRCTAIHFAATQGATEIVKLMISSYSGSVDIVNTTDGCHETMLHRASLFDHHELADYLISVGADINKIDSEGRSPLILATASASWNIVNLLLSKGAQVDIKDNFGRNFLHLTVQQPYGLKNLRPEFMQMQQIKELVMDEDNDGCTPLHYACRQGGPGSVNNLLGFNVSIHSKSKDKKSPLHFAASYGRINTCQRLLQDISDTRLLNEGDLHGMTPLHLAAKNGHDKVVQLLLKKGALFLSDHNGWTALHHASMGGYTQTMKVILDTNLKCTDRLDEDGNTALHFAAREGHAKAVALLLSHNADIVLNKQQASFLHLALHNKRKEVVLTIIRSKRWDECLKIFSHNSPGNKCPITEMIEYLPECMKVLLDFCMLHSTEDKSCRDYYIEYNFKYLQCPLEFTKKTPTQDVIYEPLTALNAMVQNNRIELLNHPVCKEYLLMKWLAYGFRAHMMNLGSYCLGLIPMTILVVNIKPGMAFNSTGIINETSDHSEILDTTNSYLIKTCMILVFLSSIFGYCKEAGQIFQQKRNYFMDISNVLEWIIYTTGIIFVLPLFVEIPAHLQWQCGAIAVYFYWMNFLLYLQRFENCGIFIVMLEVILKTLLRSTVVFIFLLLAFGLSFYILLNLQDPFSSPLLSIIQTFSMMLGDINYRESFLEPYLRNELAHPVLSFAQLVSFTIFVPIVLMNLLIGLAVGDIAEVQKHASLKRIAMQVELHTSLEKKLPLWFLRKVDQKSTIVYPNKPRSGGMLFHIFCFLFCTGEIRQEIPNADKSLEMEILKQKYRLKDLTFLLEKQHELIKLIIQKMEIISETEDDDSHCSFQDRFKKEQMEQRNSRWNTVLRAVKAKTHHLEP

Row | melting point | SMILES | ED50 (gastric emptying of rats) | further results
1 | 168 to 170 °C | O=C(O)/C=C1/C(=O)N(Cc2ccccc2)c2c(F)cccc21 [Example 18, (2E)-(1-benzyl-7-fluoro-2-oxo-1,2-dihydro-3H-indol-3-ylidene)acetic acid] | 3.6 mg/kg | –
2 | 171 to 173 °C | O=C(O)/C=C1/C(=O)N(CC2CC2)c2c(F)cccc21 [Example 37, (2E)-[1-(cyclopropylmethyl)-7-fluoro-2-oxo-1,2-dihydro-3H-indol-3-ylidene]acetic acid] | – | IC50 (Cytochrome P450(2D6)): > 50 µM
3 | 137 to 139 °C | CC[C@H](C)CN1C(=O)/C(=C/C(=O)O)c2cccc(F)c21 [Example 47, (2E)-{7-fluoro-1-[(2S)-2-methylbutyl]-2-oxo-1,2-dihydro-3H-indol-3-ylidene}acetic acid] | 0.61 mg/kg | EC50 (human TRPA1): 1.01 µM
4 | 142 to 144 °C | CC(C)CCN1C(=O)/C(=C/C(=O)O)c2cccc(F)c21 [Example 49, (2E)-[7-fluoro-1-(3-methylbutyl)-2-oxo-1,2-dihydro-3H-indol-3-ylidene]acetic acid] | – | EC50 (human TRPA1): 0.83 µM
5 | 133 to 135 °C | O=C(/C=C1/C(=O)N(CC2CCC2)c2ccccc21)N1CCC1 [Example 66, (3E)-3-(2-azetidin-1-yl-2-oxoethylidene)-1-(cyclobutylmethyl)-1,3-dihydro-2H-indol-2-one] | – | –

More lines, now with the values behind:

Row | SMILES | melting point | ED50 (gastric emptying of rats) | further results
6 | CC(C)CN1C(=O)/C(=C/C(=O)O)c2cccc(F)c21 [Example 1, (2E)-(7-fluoro-1-isobutyl-2-oxo-1,2-dihydro-3H-indol-3-ylidene)acetic acid] | – | 0.13 mg/kg | EC50 (human TRPA1): 4.27 µM; IC50 (Cytochrome P450(2D6)): > 20 µM
7 | NC(=O)/C=C1/C(=O)N(Cc2ccccc2)c2ccccc21 [Example 20] | – | 4.4 mg/kg | –
8 | CC(C)(C)CN1C(=O)/C(=C/C(=O)O)c2ccccc21 [Example 25] | – | 0.31 mg/kg | –
9 | NC(=O)/C=C1/C(=O)N(CC2CCCC2)c2c(F)cccc21 [Example 29] | – | – | EC50 (human TRPA1): 0.66 µM
10 | O=C(/C=C1/C(=O)N(CC2CCCC2)c2c(F)cccc21)N1CCCC1 [Example 30] | – | 0.42 mg/kg | –
11 | O=C(/C=C1/C(=O)N(CC2CCCC2)c2c(F)cccc21)N1CCC1 [Example 33] | – | – | EC50 (human TRPA1): 1.3 µM
12 | CCC(CC)CN1C(=O)/C(=C/C(=O)O)c2cccc(F)c21 [Example 36] | – | 0.069 mg/kg | –
13 | COc1cccc(CN2C(=O)/C(=C/C(=O)O)c3cccc(Cl)c32)c1 [Example 39] | – | 0.24 mg/kg | –
14 | O=C(/C=C1/C(=O)N(CC2CCCC2)c2c(F)cccc21)N1CCOCC1 [Example 40] | – | 0.59 mg/kg | –
15 | CN(C)C(=O)/C=C1/C(=O)N(CC2CCCC2)c2c(F)cccc21 [Example 43, (2E)-2-[1-(cyclopentylmethyl)-7-fluoro-2-oxo-1,2-dihydro-3H-indol-3-ylidene]-N,N-dimethylacetamide] | 51 to 53 °C | – | EC50 (human TRPA1): 3.76 µM; IC50 (Cytochrome P450(2D6)): > 25 µM
16 | CN(C)C(=O)/C=C1/C(=O)N(CC2CCCCC2)c2ccccc21 [Example 59, (2E)-2-[1-(cyclohexylmethyl)-2-oxo-1,2-dihydro-3H-indol-3-ylidene]-N,N-dimethylacetamide] | 80 to 82 °C | – | –
17 | O=C(/C=C1/C(=O)N(CC2CCCCC2)c2ccccc21)N1CCC1 [Example 61, (3E)-3-(2-azetidin-1-yl-2-oxoethylidene)-1-(cyclohexylmethyl)-1,3-dihydro-2H-indol-2-one] | 163 to 165 °C | – | –
18 | O=C(/C=C1/C(=O)N(CC2CCCC2)c2ccccc21)N1CCC1 [Example 62, (3E)-3-(2-azetidin-1-yl-2-oxoethylidene)-1-(cyclopentylmethyl)-1,3-dihydro-2H-indol-2-one] | 111 to 113 °C | – | –
19 | CCC(CC)CN1C(=O)/C(=C/C(=O)O)c2ccccc21 [Example 63, (2E)-[1-(2-ethylbutyl)-2-oxo-1,2-dihydro-3H-indol-3-ylidene]acetic acid] | 147 to 149 °C | – | –
20 | CCC(CC)CN1C(=O)/C(=C/C(=O)N2CCCC2)c2ccccc21 [Example 64, (3E)-1-(2-ethylbutyl)-3-(2-oxo-2-pyrrolidin-1-ylethylidene)-1,3-dihydro-2H-indol-2-one] | 71 to 73 °C | – | –
21 | CCC(CC)CN1C(=O)/C(=C/C(=O)N2CCC2)c2ccccc21 [Example 65, (3E)-3-(2-azetidin-1-yl-2-oxoethylidene)-1-(2-ethylbutyl)-1,3-dihydro-2H-indol-2-one] | 116 to 118 °C | – | –
22 | O=C(/C=C1/C(=O)N(CC2CCC2)c2ccccc21)N1CCCC1 [Example 67, (3E)-1-(cyclobutylmethyl)-3-(2-oxo-2-pyrrolidin-1-ylethylidene)-1,3-dihydro-2H-indol-2-one] | 108 to 110 °C | – | –
23 | C#CCN1C(=O)/C(=C/C(C)=O)c2ccccc21 [comparative compound 2, (3E)-3-(2-oxopropyridene)-1-prop-2-in-1-yl-1,3-dihydro-2H-indol-2-one, reference compound] | – | 8.8 mg/kg | –
